PubChem BioAssay AID1259411 (Chemical Carcinogenesis Research Information System (CCRIS), 2018)
Calls of active or inactive are those of the source. No rule for the calls is given here.

Test system: rodent carcinogenicity bioassays, tumor incidence
Assay: CCRIS carcinogenicity studies
Outline: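 NCI-built, expert-reviewed records of carcinogenicity and related test outcomes (mutagenicity, tumor promotion/inhibition) compiled from published and report sources, historical span 1985-2011, not updated.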

## NNc1ccccc1
Species: MOUSE, Route: ORAL, Tumor Site: Type of Lesion: BLOOD VESSELS, LUNG
  carcinogen call: active; positive

## O=P1(O)OP(=O)(O)OP(=O)(O)O1
Species: RAT, Strain/Sex: F344/FEMALE, Route: ORAL, Dose: 0, 1.5, 3% IN DIET FOR DURATION OF STUDY (STUDY DURATION: 108 WK), Dose: 0, 1.5, 3% IN DIET FOR DURATION OF STUDY (STUDY DURATION: 108 WK)
  carcinogen call: inactive; negative
Species: RAT, Strain/Sex: F344/MALE, Route: ORAL, Dose: 0, 1.5, 3% IN DIET FOR DURATION OF STUDY (STUDY DURATION: 108 WK), Dose: 0, 1.5, 3% IN DIET FOR DURATION OF STUDY (STUDY DURATION: 108 WK)
  carcinogen call: inactive; negative

## c1ccc2c(c1)ccc1ncccc12
Species: RAT, Strain/Sex: SPRAGUE-DAWLEY/FEMALE, Route: SUBCUTANEOUS, Dose: 0, 200 UMOL/KG IN DMSO INTO SUPRASCAPULAR AREA ON DAY 1 OF LIFE FOLLOWED BY 0, 100 UMOL 1/WK AT WK 2-7 THEN O, 200 UMOL/, Dose: 0, 200 UMOL/KG IN DMSO INTO SUPRASCAPULAR AREA ON DAY 1 OF LIFE FOLLOWED BY 0, 100 UMOL 1/WK AT WK 2-7 THEN O, 200 UMOL/
  carcinogen call: inactive; negative
Species: RAT, Strain/Sex: SPRAGUE-DAWLEY/MALE, Route: SUBCUTANEOUS, Dose: 0, 200 UMOL/KG IN DMSO INTO SUPRASCAPULAR AREA ON DAY 1 OF LIFE FOLLOWED BY 0, 100 UMOL 1/WK AT WK 2-7 THEN O, 200 UMOL/, Dose: 0, 200 UMOL/KG IN DMSO INTO SUPRASCAPULAR AREA ON DAY 1 OF LIFE FOLLOWED BY 0, 100 UMOL 1/WK AT WK 2-7 THEN O, 200 UMOL/
  carcinogen call: inactive; negative
